Experimental findings from paper PMC3723878 (PLoS ONE, 2013) are described below.

The assay concerns the target T1, human α1A-AR F308A variant (Homo sapiens, UniProt P35348, F308A).
T1 construct: expressed in transfected cells; host or cells: COS-7 (transient, calcium phosphate), membranes
T1 sequence (P35348 1-466 F308A): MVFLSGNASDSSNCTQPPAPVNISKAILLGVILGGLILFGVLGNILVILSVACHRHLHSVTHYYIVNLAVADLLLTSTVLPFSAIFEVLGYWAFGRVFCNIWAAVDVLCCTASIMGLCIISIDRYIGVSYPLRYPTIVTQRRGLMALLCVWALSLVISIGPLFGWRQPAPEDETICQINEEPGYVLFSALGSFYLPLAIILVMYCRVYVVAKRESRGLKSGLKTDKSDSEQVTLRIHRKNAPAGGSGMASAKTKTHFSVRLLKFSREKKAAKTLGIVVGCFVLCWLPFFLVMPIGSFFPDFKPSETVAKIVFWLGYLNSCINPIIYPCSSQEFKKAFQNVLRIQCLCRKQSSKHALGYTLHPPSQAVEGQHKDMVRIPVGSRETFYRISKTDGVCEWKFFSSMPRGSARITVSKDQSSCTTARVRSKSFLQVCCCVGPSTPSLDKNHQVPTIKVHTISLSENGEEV
In words: Saturation binding of ^125I-HEAT.

Turning to `O=C1c2ccccc2CCC1CNCCc1ccc(O)c([125I])c1` (centres unmarked) [125I-HEAT], under “F308A”, the “^125I-HEAT Ratio (loss of affinity relative to WT)” value turned out to be 2.4. In addition, the “^125I-HEAT pKd” value (F308A (7.35), saturation binding, n = 3–6) is recorded as 9.66±0.11.
